Data published in patent publication US11340219B2, “Anti-pY1235-MET immunological binding reagent” (THE UNITED STATES OF AMERICA AS REPRESENTED BY THE …, priority 2016, dated 2022).
Entries after “also recorded” stand apart in the source; their conditions may differ. Read-outs that look alike come from different tables or passages of the source. One block for each molecule: values may come before it.

Tests used:
[1] = test system: GTL-16 tumor xenografts; assay: GTL-16 xenograft tumor growth; type: in vivo, mice
Experimental: Animal models and drug administration. Athymic nude mice (nu/nu NCr; Animal Production Program, NCI-Frederick) were implanted with the human cancer cell lines U87 (glioblastoma); A549 (lung carcinoma); MDA-MB-231 (breast carcinoma); HT-29 (colon carcinoma); or with GTL-16, MKN45, or SNU5 (all gastric carcinomas, MET-amplified) as described (17). […] Sorafenib was dissolved in DMSO for in vitro studies. […] Tivantinib was administered orally in a PEG 400:20% vitamin E tocopheryl polyethylene glycol succinate solution (60:40) vehicle. Fit-for-purpose MET inhibitor studies.

[2] = target: MET (Homo sapiens, UniProt P08581)
Experimental: Fit-for-purpose MET inhibitor studies. […] Extracts of core needle biopsies collected 4 h after tivantinib administration on Day 8 were analyzed for MET, pMET, and hypoxia inducible factor 1, alpha subunit (HIF-1α) (21).
MET immunoassay procedure. The full-length MET immunoassay measures the total levels of full-length MET in tumor tissue samples, irrespective of phosphorylation status. […] Wells were blocked for 2 h with 1×PBS, 0.5% mannitol, 0.2% glycine, and 0.2% BSA, and strips were assembled on 96-well plate frames, freeze-dried, and sealed in desiccated pouches (6-month stability). For the immunoassay, 100 μL each of purified rMET calibrator, controls, and tumor lysates (at protein concentrations of 10-50 μg/mL) prepared in assay buffer (1×PBS/Casein [BioFx] containing PhosSTOP, protease inhibitors and 0.1% Triton X-100 [Roche]) were added to the AF276-coated wells. The rMET assay calibrator was prepared for the dynamic range of the assay. Plates were incubated at ambient temperature (25° C.±3° C.) on an orbital shaker (600 rpm) 1 h to capture MET. After three washes with assay buffer, 100 μL/well 200 ng/mL biotin-conjugated mouse monoclonal MET antibody (clone L41G3) was added to the plates and incubated 1 h at 25° C.±3° C., followed by a second wash and the addition of 100 μL/well 200 ng/mL streptavidin poly-HRP conjugate (Pierce). After 30-min incubation with the HRP-conjugate, plates were washed 4 times and 100 μL SuperSignal ELISA Pico Chemiluminescent Substrate (pierce) was added to each well. Plates were read within 10 min using an Infinite 200 Microplate ELISA reader (Tecan, USA). MET immunoassay calibration curves were analyzed on GraphPad Prism and unknown values were calculated using 4-parameter curve fitting.
Three different pMET immunoassays were developed for the PD studies: pY1234/1235-, pY1235-, and pY1356-MET (Supplemental Material). […] The pMET assay calibrators were prepared for the dynamic range of each assay. Assay control samples were prepared by combining GTL-16, SNU5, A549, MKN45, or U87 xenograft tumor lysates to achieve low, medium, and high MET concentrations at 10 to 50 μg/mL total protein concentrations.

[3] = test system: HIF-1α; assay: HIF-1α immunoassay in SNU5 xenograft extracts; type: in vivo; details: SNU5, day 8, pazopanib 100 mg/kg daily, p<0.05
[4] = test system: pY1235-MET in MET-expressing cell lines (GTL-16, HT29, A549); assay: pY1235-MET immunofluorescence staining of treated cancer cell lines; type: cell-based, human; details: 100 nM drug, clone 23111 staining, FIG. 1B
Experimental: MET immunofluorescence analysis. […] Cells were fixed in 10% neutral-buffered formalin (Sigma-Aldrich) for 24 h, pelleted, and then embedded in paraffin. After 5-μm sectioning, antigen retrieval with Bond Epitope Retrieval Solution 2 (at 100° C. for 10 min) and immunofluorescent staining were performed on the Bond-max Autostainer (Leica Biosystems). For antigen detection, 10 μ/mL primary antibody (anti-pY1235-MET, clone 23111) was followed by 10 μg/mL goat anti-rabbit AF488 (Life Technologies). Immunofluorescence microscopy was performed on core needle biopsies of a resected a human HPRC tumor stained with 5 μg/mL anti-full-length MET (clone Met4) followed by 10 μg/mL anti-mouse AF660 (Life Technologies). Image acquisition and analysis were performed on a wide-field fluorescent, confocal microscope (Nikon 90i, Andor Camera, NIS Elements Software).

[5] = target: pY1235-MET (Homo sapiens, UniProt P08581); assay: BIAlite-Biosensor interaction analysis of antibody binding affinity; details: range of protein concentrations, details not shown
Experimental: To facilitate bulk production, rabbit monoclonal antibodies (clones 23111 and 7334) were converted into recombinant proteins through transient expression in HEK293 cells (8). The cDNA from rabbit hybridomas was used to clone IgG heavy and light chains in a 7.7 kB ampicillin-resistant mammalian expression vector co-expressing EB oriP, zeocin selection, and CMV promoter for transient expression in HEK293 cells. For mammalian expression plasmids, DNA was prepared using the GenElute XP Maxiprep kit (Sigma-Aldrich) and verified by agarose gel electrophoresis. Recombinant protein production provided typical yields of 100-300 mg/L in suspension cultures. Specificity of antibodies, determined by Western blot using xenograft lysate and rMET protein, was unaffected by this process. To further characterize these MET antibodies, their binding affinities were measured over a range of protein concentrations using interaction analysis performed with a BIAlite-Biosensor (Pharmacia) as previously described (9).

[6] = test system: pY1234-MET; assay: Western blot specificity analysis; type: binding; details: FIG. 7A
Experimental: (§1) Rabbits were selected for splenectomy and B-cells were subsequently fused with the rabbit cell line 240E-W2 to produce hybridomas based on high antiserum binding to phosphorylated synthetic peptide and lower or undetectable binding to the nonphosphorylated synthetic peptide of identical sequence. Specificity of the pY1235-MET antibody (clone 23111) was tested by preincubating the antibody with synthetic MET peptides phosphorylated at Y1235 (99% phosphorylated at Y1235, nonphosphorylated at Y1234, 1% other impurities) or at Y1234, or preincubating with recombinant RON (cytoplasmic domain, Millipore) (FIG. 7A). Only preincubation with the pY1235 peptide blocked binding of the antibody to the MET protein band. Specificity of clone 23111 was further confirmed by Western blotting of a GST-fusion with MET amino acids 912-1390 harboring a Y1235D-specific mutation (N-terminal GST-Y1235D-MET peptide, 76 kDa; CarnaBio USA, Inc) and of a recombinant cytoplasmic domain of RON (FIG. 7B). […] According to the manufacturer's specifications, anti-pY1234/1235-MET (clone D26) can also bind to tyrosine phosphorylated SRC proteins by Western blot.
(§2) Protein concentrations were determined by bicinchoninic acid assay (BCA assay), and cell lysate loads between 25 and 50 μg per well were run on 4% to 20% precast polyacrylamide gradient gels (Bio-Rad Laboratories) for SDS-PAGE at 100 V for up to 2 hours. Proteins separated by gel electrophoresis were transferred to a nitrocellulose membrane using the Mini-PROTEAN Tetra electrophoresis system (Bio-Rad) at 90 V for 4 hours at 2° C. to 8° C. Membranes were blocked in Odyssey blocking buffer (LI-COR) for 1 hour at 25° C.±3° C. Blots were probed first with 1 μg/mL mouse, rabbit, or goat anti-MET monoclonal antibody in Odyssey blocking buffer overnight at 2° C. to 8° C. with slow orbital shaking and then with an IR dye-labeled secondary antibody against mouse, rabbit, or goat antibody (1:5000 in Odyssey blocking buffer; LI-COR) for 1 hour at 25° C.±3° C. with orbital shaking. Blots were visualized using the Odyssey Infrared imager (LI-COR). […]

[7] = target: T1, recombinant Y1235D-MET peptide (N-terminal GST-Y1235D-MET) (Homo sapiens, UniProt P08581, Y1235D); assay: Western blot specificity analysis; type: binding; details: FIG. 7B
T1 construct: a GST-fusion with MET amino acids 912-1390 harboring a Y1235D-specific mutation; purchased CarnaBio USA, Inc
Experimental: as §1, §2

[8] = target: T2, recombinant cytoplasmic domain of RON (Homo sapiens, UniProt Q04912); assay: Western blot specificity analysis; type: binding; details: FIGS. 7A and 7B
T2 construct: preincubating with recombinant RON (cytoplasmic domain, Millipore); purchased Millipore
T2 sequence (Q04912 979-1400 limits assumed): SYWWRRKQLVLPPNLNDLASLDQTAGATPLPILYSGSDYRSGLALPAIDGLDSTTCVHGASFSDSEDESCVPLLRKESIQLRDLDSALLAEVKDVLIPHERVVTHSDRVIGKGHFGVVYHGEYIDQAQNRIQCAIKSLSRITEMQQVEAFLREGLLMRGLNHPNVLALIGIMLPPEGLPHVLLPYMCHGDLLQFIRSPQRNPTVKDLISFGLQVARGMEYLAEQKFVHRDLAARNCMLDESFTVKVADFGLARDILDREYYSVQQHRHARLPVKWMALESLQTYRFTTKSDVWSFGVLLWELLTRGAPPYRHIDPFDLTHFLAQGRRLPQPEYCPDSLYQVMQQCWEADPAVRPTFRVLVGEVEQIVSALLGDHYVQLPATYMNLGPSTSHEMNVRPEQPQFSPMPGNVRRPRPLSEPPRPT
Experimental: as §1, §2

Molecule: C[C@@H](Oc1cc(-c2cnn(C3CCNCC3)c2)cnc1N)c1c(Cl)ccc(F)c1Cl [PF02341066, crizotinib]
- tumor growth ([1]; daily oral 25 mg/kg, by the seventh day of treatment): achieved stasis

- reduction in pY1235-MET:MET ratio ([2]; GTL-16, 25 mg/kg IP, 4 h after first dose): 62%
- reduction in pY1235-MET:MET ratio ([2]; GTL-16, 50 mg/kg IP, 4 h after first dose): 80%
- reduction in pY1235-MET:MET ratio ([2]; GTL-16, 4 h after the first dose (discussion summary)): 60-80%
- pY1356-MET:MET ratio ([2]; GTL-16, PHA665752 after first dose, recovered to normal within 20 h): declined after the first dose
Molecule: Cc1[nH]c(/C=C2\C(=O)Nc3ccc(S(=O)(=O)Cc4c(Cl)cccc4Cl)cc32)c(C)c1C(=O)N1CCC[C@@H]1CN1CCCC1 [PHA665752]
- tumor growth ([1]; 25 and 50 mg/kg/day IP, after 8-10 days of treatment): achieved tumor stasis

Molecule: Cc1ccc(Nc2nccc(N(C)c3ccc4c(C)n(C)nc4c3)n2)cc1S(N)(=O)=O [pazopanib]
- increase in HIF-1α levels [3]: 46%

Molecule: CNC(=O)c1cc(Oc2ccc(NC(=O)Nc3ccc(Cl)c(C(F)(F)F)c3)cc2)ccn1 [sorafenib]
- sensitivity of pY1235-MET plasma membrane staining to drug [4]: not

- IC50 [5]: 1.2 nM
- cross-reactivity with cytoplasmic domain of RON [8]: no cross-reactivity
B1: clone 23111: rabbit monoclonal antibody specific to pY1235-MET; VH SEQ ID NO:1, VL SEQ ID NO:2 (antibody, V domains shown)
VH: QSVEESGGRLVTPGTPLTLTCTVSGFSLSNYAMGWFRQAPGKGLEWIGIISRSGALWYANWANGRFTISKTSTTVDLKITSPTPEDTATYFCARTNYYDGYGGVDAVLTRFDFWGQGTLVTVSSG
VL: ADVVMTQTPSSVEAAVGGTVTIKCQASQSIGGGLSWYQQKAGQPPKLLIYGASTLESGVPSRFKGSGSGTEFTLTISDLECADAATYYCQSNYGSDIRDYGHTFGGGTEVVVKGDPVAPTVLIFPP
- reactivity with MET epitope phosphorylated only at Y1234 [6]: no cross-reactivity; also recorded: undetectable reactivity
- reactivity with Y1235D-MET (tyrosine 1235 replaced by aspartic acid) [7]: no cross-reactivity; also recorded: undetectable cross-reactivity
